The values that follow come from PubChem BioAssay (NCI).

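Five compound concentrations were applied to cells in 96-well plates for 48 hours; endpoints were derived by simple linear interpolation of the resulting dose-response curve. TGI: total growth inhibition.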

One assay has as its system SF-295 CNS. The assay can be described thus: inhibition of tumour cell growth, NCI panel, 48 h.
`CC(C)=CCc1c(O)ccc2ccc(=O)oc12` gave a TGI above 100 µM.

As to `COC(=O)C1C=CN(N(C)C)C2=C1C(=O)c1c(O)cccc1C2=O` (stereo not given), the TGI came out at 3.31 µM.

Another assay concerns SR leukemia. The assay can be described thus: inhibition of tumour cell growth, NCI panel, 48 h.
Compound `CC#C[P+](c1ccccc1)(c1ccccc1)c1ccccc1` yielded a TGI of 14.3 µM.

As to `O=P(O)(Cc1ccccc1)c1ccccc1-c1ccccc1`, the TGI was above 100 µM.

Compound `O=C(CC(=O)c1ccccc1)CC(O)(c1ccccc1)c1ccccc1` yielded a TGI above 100 µM.

Turning to `Cc1cccc(C(C)C)c1NC(=O)CC1Sc2ccccc2NC1=O` (stereo not given), the TGI is above 100 µM.

The compound `COc1cccc2c1C(=O)c1c(O)c3c(c(O)c1C2=O)C[C@@](O)(C(=O)CO)C[C@@H]3OC1CC(N)C(OC)C(C)O1` (stereo not given in full) had a TGI of 0.364 µM.

Regarding `COc1cc2c(cc1O)C1C(O)C(O)C=C3CCN(C2)C31` (stereo not given), the TGI worked out at 5.67 µM.

In a further assay the test system is SW-620 colon. Kind of assay: inhibition of tumour cell growth, NCI panel, 48 h.
The compound `CCCC(O)C(NC(=O)CCl)C(=O)O` (stereo not given) returned a TGI above 100 µM.

For the compound `COc1ccc(/C=N/n2c(-c3ccccc3)n[nH]c2=O)cc1`, the TGI was above 100 µM.

As for `O=P(O)(Cc1ccccc1)c1ccccc1-c1ccccc1`, the TGI was above 100 µM.

For `CC12CC(C#N)(C#N)C(C#N)(CO1)C(=N)O2` (stereo not given), the TGI is above 100 µM.

Compound `COc1cc(/C=C/C(=O)O)ccc1C(=O)OCc1ccccc1` showed a TGI above 100 µM.

As to `O=C(CC(=O)c1ccccc1)CC(O)(c1ccccc1)c1ccccc1`, the TGI worked out at 18.1 µM.

`Cc1cccc(C(C)C)c1NC(=O)CC1Sc2ccccc2NC1=O` (stereo not given): the TGI was above 100 µM.

`COc1cccc2c1C(=O)c1c(O)c3c(c(O)c1C2=O)C[C@@](O)(C(=O)CO)C[C@@H]3OC1CC(N)C(OC)C(C)O1` (stereo not given in full) yielded a TGI of 4.05 µM.

For `CC(C)(C)NC(=O)N1N=C(c2ccccc2)C1c1ccccc1` (stereo not given), the TGI is above 100 µM.

For the compound `COc1cc2c(cc1O)C1C(O)C(O)C=C3CCN(C2)C31` (stereo not given), the TGI is 12.6 µM.

`CC(C)=CCc1c(O)ccc2ccc(=O)oc12` gave a TGI above 100 µM.

`COC(=O)C1C=CN(N(C)C)C2=C1C(=O)c1c(O)cccc1C2=O` (stereo not given) came in with a TGI of 5.14 µM.

A further assay relates to TK-10 renal. The assay can be described thus: inhibition of tumour cell growth, NCI panel, 48 h.
Consider `CC#C[P+](c1ccccc1)(c1ccccc1)c1ccccc1`, for which the TGI came out at 15.7 µM.

Compound `O=P(O)(Cc1ccccc1)c1ccccc1-c1ccccc1` gave a TGI above 100 µM.

`CC12CC(C#N)(C#N)C(C#N)(CO1)C(=N)O2` (stereo not given) displayed a TGI above 100 µM.

Compound `O=C(CC(=O)c1ccccc1)CC(O)(c1ccccc1)c1ccccc1` yielded a TGI of 42.1 µM.

Turning to `Cc1cccc(C(C)C)c1NC(=O)CC1Sc2ccccc2NC1=O` (stereo not given), the TGI was above 100 µM.

`COc1cccc2c1C(=O)c1c(O)c3c(c(O)c1C2=O)C[C@@](O)(C(=O)CO)C[C@@H]3OC1CC(N)C(OC)C(C)O1` (stereo not given in full) yielded a TGI of 36.6 µM.

Compound `CC(C)(C)NC(=O)N1N=C(c2ccccc2)C1c1ccccc1` (stereo not given) came in with a TGI above 100 µM.

Compound `COc1cc2c(cc1O)C1C(O)C(O)C=C3CCN(C2)C31` (stereo not given) displayed a TGI of 11.7 µM.

Regarding `COC(=O)C1C=CN(N(C)C)C2=C1C(=O)c1c(O)cccc1C2=O` (stereo not given), the TGI was 15 µM.

The test system of the next assay is U251 CNS. Kind of assay: inhibition of tumour cell growth, NCI panel, 48 h.
`CC#C[P+](c1ccccc1)(c1ccccc1)c1ccccc1` had a TGI of 11.8 µM.

On to `CCCC(O)C(NC(=O)CCl)C(=O)O` (stereo not given), for which the TGI is above 100 µM.

For the compound `COc1ccc(/C=N/n2c(-c3ccccc3)n[nH]c2=O)cc1`, the TGI was above 100 µM.

In turn, `O=P(O)(Cc1ccccc1)c1ccccc1-c1ccccc1` returned a TGI above 100 µM.

For `CC12CC(C#N)(C#N)C(C#N)(CO1)C(=N)O2` (stereo not given), the TGI is above 100 µM.

For the compound `COc1cc(/C=C/C(=O)O)ccc1C(=O)OCc1ccccc1`, the TGI is above 100 µM.

The compound `O=C(CC(=O)c1ccccc1)CC(O)(c1ccccc1)c1ccccc1` had a TGI of 14.9 µM.

`Cc1cccc(C(C)C)c1NC(=O)CC1Sc2ccccc2NC1=O` (stereo not given): the TGI is above 100 µM.

`COc1cccc2c1C(=O)c1c(O)c3c(c(O)c1C2=O)C[C@@](O)(C(=O)CO)C[C@@H]3OC1CC(N)C(OC)C(C)O1` (stereo not given in full) came in with a TGI of 0.441 µM.

The compound `CC(C)(C)NC(=O)N1N=C(c2ccccc2)C1c1ccccc1` (stereo not given) showed a TGI above 100 µM.

Take `COc1cc2c(cc1O)C1C(O)C(O)C=C3CCN(C2)C31` (stereo not given): the TGI was 24.2 µM.

In turn, `CC(C)=CCc1c(O)ccc2ccc(=O)oc12` gave a TGI above 100 µM.

For the compound `COC(=O)C1C=CN(N(C)C)C2=C1C(=O)c1c(O)cccc1C2=O` (stereo not given), the TGI worked out at 11.8 µM.

The next assay has as its system UACC-257 melanoma. Kind of assay: inhibition of tumour cell growth, NCI panel, 48 h.
For the compound `CC#C[P+](c1ccccc1)(c1ccccc1)c1ccccc1`, the TGI was 9.59 µM.

The compound `CCCC(O)C(NC(=O)CCl)C(=O)O` (stereo not given) gave a TGI above 100 µM.

For `COc1ccc(/C=N/n2c(-c3ccccc3)n[nH]c2=O)cc1`, the TGI was above 100 µM.

In turn, `O=P(O)(Cc1ccccc1)c1ccccc1-c1ccccc1` gave a TGI above 100 µM.

For the compound `CC12CC(C#N)(C#N)C(C#N)(CO1)C(=N)O2` (stereo not given), the TGI was above 100 µM.

Turning to `COc1cc(/C=C/C(=O)O)ccc1C(=O)OCc1ccccc1`, the TGI is above 100 µM.

Turning to `O=C(CC(=O)c1ccccc1)CC(O)(c1ccccc1)c1ccccc1`, the TGI was 29.7 µM.

As to `Cc1cccc(C(C)C)c1NC(=O)CC1Sc2ccccc2NC1=O` (stereo not given), the TGI is above 100 µM.

For `COc1cccc2c1C(=O)c1c(O)c3c(c(O)c1C2=O)C[C@@](O)(C(=O)CO)C[C@@H]3OC1CC(N)C(OC)C(C)O1` (stereo not given in full), the TGI was found to be 1.34 µM.

As for `CC(C)(C)NC(=O)N1N=C(c2ccccc2)C1c1ccccc1` (stereo not given), the TGI was above 100 µM.

`COc1cc2c(cc1O)C1C(O)C(O)C=C3CCN(C2)C31` (stereo not given): the TGI was 12.2 µM.

Compound `CC(C)=CCc1c(O)ccc2ccc(=O)oc12` showed a TGI of 84 µM.

The compound `COC(=O)C1C=CN(N(C)C)C2=C1C(=O)c1c(O)cccc1C2=O` (stereo not given) returned a TGI of 2.8 µM.
